Measurements: patent EP1510220B1 (priority 1993, dated 1994)

Key:
[1] = test system: Vascular smooth muscle cells (BO54); test: Scratch-migration assay with morphological toxicity grading; assay type: cell-based, baboon; parameters: key: - = no migration; +1 = minimal; +2 = mild; +3 = moderate; +4 = marked (maximum density; limit of cell contact inhibition) migration
Method: Scratch assays to determine the extent of smooth muscle cell migration inhibition by cytochalasin B were performed in accordance with the following protocol:
Vascular smooth muscle cells (BO54) were derived from explants of baboon aortic smooth muscle, as described in Example 1. The cells were grown in flat bottom, six well tissue culture plates, which hold about 5 ml of medium. The vascular smooth muscle cells were plated at 200,000 cells/well and placed at 37°C in a humidified 5% CO2 incubator for 18 hours. The wells were then scratched with a sterile portion of a single edge razor blade that was held by clamp or pliers and was brought aseptically into contact with the bottom of the well at a 90° angle. The cells from a small area along the scratch were removed by a sterile cotton tipped applicator while the blade was in contact with the bottom of the well. After incubation, the presence of cells in the "scratched" area is indicative of cell migration across the scratch line.
Briefly, a stock solution of cytochalasin B (Sigma Chemical Co.) in dimethyl sulfoxide (DMSO) at 1 mg/ml was prepared. Test dilutions of cytochalasin B or control medium were added. Each experiment included two sets of plates: • A set: Test agent exposure for 1, 3, 6, 8 and 10 days only; and • B set: Test agent exposure for 1, 3, 6, 8 and 10 days, followed by a seven day recovery time with control medium. Both sets of plates were fixed (10% formalin in PBS) and stained (0.02% crystal violet) at the end of the timed exposures. Test concentrations for cytochalasin B were 1, 0.1 and 0.01 µg/ml, and a negative medium control was included. Fresh medium and drug were supplied 3 times per week.
In this Table, "M" indicates Migration Grade, wherein - = no migration; +1 = minimal; +2 = mild; +3 = moderate; and +4 = marked (maximum density; limit of cell contact inhibition) migration of vascular smooth muscle cells into the cleared area adjacent to the scratch. In this Table, "T" denotes a morphological Toxicity Grade, wherein - = no toxicity; +1 = minimal; +2 = mild; +3 = moderate; and +4 = marked toxicity. The migration results are expressed as "Grade in the Cleared Area of the Well / Grade in an Undisturbed Region of the Well." The toxicity values represent a grade for all cells in each well.

[2] = test system: Rat vascular smooth muscle cells; test: Proliferation of rat vascular smooth muscle cells by cell counting; assay type: cell-based
Method: Cell culture, DNA synthesis assay and cell counting. Rat vascular smooth muscle cells were cultured after enzymatic dispersion of the aortic media from 12-17 week old Wistar rats as described in Grainger et al., Biochem. J., 277: 145-151, 1991. When the cells reached confluence (after about 6 days) the cells were released with trypsin/EDTA (available from Gibco) and diluted 1:2 in Dulbecco's modification of Eagle's medium (DMEM; available from ICN/Flow) supplemented with 100 U/ml penicillin and 10% fetal calf serum (FCS). The cells were then replated on tissue culture plastic (available from ICN/Flow) at approximately 1 x 10^4 cells/cm^2. The cells were subcultured repeatedly in this way when confluence was attained (about every 4 days), and the cells were used between passages 6 and 12.
(§1) Cells were prepared for counting by hemocytometer from triplicate culture dishes as described in Grainger et al., Biochem. J., 277:145-151, 1991. Cells were also counted by direct microscopic observation of gridded culture dishes. The grids were scored into the plastic on the inner surface, so that the cells could not migrate into or out of the area being counted during the experiment. Cells in each of four squares in two separate wells were counted at each time point. All cell counting experiments were repeated on at least three separate cultures.
A stock solution of tamoxifen (5 mM; available from ICI Pharmaceuticals) was made up in 10% ethanol (EtOH) and diluted in DMEM and 10% FCS to give the final concentration. The effects of each tamoxifen concentration were compared with the effects observed in control wells containing the same final concentration of the ethanol vehicle. Recombinant TGF-beta (available from Amersham International) was dissolved in 25 mM Tris/Cl to give a 5 microgram/ml stock solution and sterile filtered through a Spinnex Tube (such as a Centrex Disposable Microfilter Unit available from Rainin Instrument Company, Inc., Woburn, MA). Neutralizing antiserum to TGF-beta (BDA19; available from R & D Systems) was reconstituted in sterile MilliQ water (available from Millipore Corporation, Bedford, MA). At 10 micrograms/ml, this antibody completely abolished the activity of 10 ng/ml recombinant TGF-beta on subcultured (8th passage) vascular smooth muscle cells.

[3] = test system: Rat adventitial fibroblasts; test: Proliferation of adventitial fibroblasts; assay type: cell-based
Method: Rat adventitial fibroblasts were cultured as described in Grainger et al., Biochem. J., 283: 403-408, 1992. Briefly, the aortae were treated with collagenase (3 mg/ml) for 30 minutes at 37°C. The tunica adventitia was stripped away from the media. The adventitia was dispersed for 2 hours in elastase (1 mg/ml) and collagenase (3 mg/ml) dissolved in medium M199 (available from ICN/Flow). The cells were then spun out (900 x g, 3 minutes), resuspended in DMEM + 10% FCS and plated out at 8 x 10^4 cells/cm^2 on tissue culture plastic. When the cells reached confluence (after about 10 days), they were subcultured as described for vascular smooth muscle cells. Adventitial fibroblasts were subcultured every 3 days at 1:3 dilution and used between passages 3 and 9.
as §1

cytochalasin B
morphological Toxicity Grade ([1]; 7-day Recovery Post Exposure, 1.0 µg/mL, Day 1): +2 | morphological Toxicity Grade ([1]; 7-day Recovery Post Exposure, 1.0 µg/mL, Day 3): +1 | morphological Toxicity Grade ([1]; 7-day Recovery Post Exposure, 1.0 µg/mL, Day 6): +3 | morphological Toxicity Grade ([1]; 7-day Recovery Post Exposure, 1.0 µg/mL, Day 8): +3 | morphological Toxicity Grade ([1]; 7-day Recovery Post Exposure, 1.0 µg/mL, Day 10): +3 | morphological Toxicity Grade ([1]; Continuous Exposure, 0.1 µg/mL, Day 3): +1 | morphological Toxicity Grade ([1]; Continuous Exposure, 0.1 µg/mL, Day 6): +1 | morphological Toxicity Grade ([1]; Continuous Exposure, 0.1 µg/mL, Day 8): +1 | morphological Toxicity Grade ([1]; Continuous Exposure, 0.1 µg/mL, Day 10): +1 | morphological Toxicity Grade ([1]; Continuous Exposure, 1.0 µg/mL, Day 1): +3 | morphological Toxicity Grade ([1]; Continuous Exposure, 1.0 µg/mL, Day 3): +3

CC/C(=C(\c1ccccc1)c1ccc(OCCN(C)C)cc1)c1ccccc1 [tamoxifen, trans-2-[4-(1,2-diphenyl-1-butenyl)phenoxy]-N,N-dimethylethylamine]
cells that had divided by 64 hours ([2]; 33 micromolar): more than 90% | time taken for 50% of the cells to divide after stimulation by serum ([2]; 33 micromolar, n=3, vehicle 35 +/-3 hours): 54 ± 2 h | onset of increase in cell number after serum stimulation ([2]; 33 micromolar, time lapse photomicroscopy): no significant increase in cell number in the presence of tamoxifen until after 48 hours | rate of proliferation ([2]; 50 micromolar with 10 micrograms/ml neutralizing antiserum against TGF-beta, 10% FCS): proliferated at the same rate as control cells | reduction of the increase in cell number ([2]; 50 micromolar, 96 hours following the addition of serum, n=3, 5760 min, 50 µM): 66% +/-5.2 | inhibition at 50 µM ([2]; Rattus norvegicus, 50 micromolar, 96 hours following the addition of serum, n=3, read-out: reduction of the increase in cell number): 66% | IC (maximal) ([2]; Rattus norvegicus, DMEM + 10% FCS, read-out: concentrations giving maximal inhibition of the rate of proliferation): > 33 µM | IC50 ([2]; rat ED VSMC, read-out: half-maximal inhibition of proliferation): 2 to 5 µM | rate of proliferation of subcultured adventitial fibroblasts ([3]; concentrations of up to 50 micromolar): did not reduce the rate of proliferation | ED50 lower for vascular smooth muscle cells than for adventitial fibroblasts ([3]; selectivity, vascular smooth muscle cells vs adventitial fibroblasts): at least 10 fold
